Legend:
[1] = target: ALK tyrosine kinase receptor (Homo sapiens) (UniProt Q9UM73); assay: Inhibition of ALK (unknown origin) assessed as remaining activity at 10 uM by ATP-competition binding assay relative to control
[2] = target: Microtubule-associated serine/threonine-protein kinase 3 (Homo sapiens, UniProt O60307); assay: Inhibition of MAST3 in human HeLa cells lysate pre incubated for 15 mins followed by ATP acyl phosphate probe addition and measured after 10 mins by LC-MS/MS analysis; assay type: subcellular
Sequence of Microtubule-associated serine/threonine-protein kinase 3 (O60307 whole entry): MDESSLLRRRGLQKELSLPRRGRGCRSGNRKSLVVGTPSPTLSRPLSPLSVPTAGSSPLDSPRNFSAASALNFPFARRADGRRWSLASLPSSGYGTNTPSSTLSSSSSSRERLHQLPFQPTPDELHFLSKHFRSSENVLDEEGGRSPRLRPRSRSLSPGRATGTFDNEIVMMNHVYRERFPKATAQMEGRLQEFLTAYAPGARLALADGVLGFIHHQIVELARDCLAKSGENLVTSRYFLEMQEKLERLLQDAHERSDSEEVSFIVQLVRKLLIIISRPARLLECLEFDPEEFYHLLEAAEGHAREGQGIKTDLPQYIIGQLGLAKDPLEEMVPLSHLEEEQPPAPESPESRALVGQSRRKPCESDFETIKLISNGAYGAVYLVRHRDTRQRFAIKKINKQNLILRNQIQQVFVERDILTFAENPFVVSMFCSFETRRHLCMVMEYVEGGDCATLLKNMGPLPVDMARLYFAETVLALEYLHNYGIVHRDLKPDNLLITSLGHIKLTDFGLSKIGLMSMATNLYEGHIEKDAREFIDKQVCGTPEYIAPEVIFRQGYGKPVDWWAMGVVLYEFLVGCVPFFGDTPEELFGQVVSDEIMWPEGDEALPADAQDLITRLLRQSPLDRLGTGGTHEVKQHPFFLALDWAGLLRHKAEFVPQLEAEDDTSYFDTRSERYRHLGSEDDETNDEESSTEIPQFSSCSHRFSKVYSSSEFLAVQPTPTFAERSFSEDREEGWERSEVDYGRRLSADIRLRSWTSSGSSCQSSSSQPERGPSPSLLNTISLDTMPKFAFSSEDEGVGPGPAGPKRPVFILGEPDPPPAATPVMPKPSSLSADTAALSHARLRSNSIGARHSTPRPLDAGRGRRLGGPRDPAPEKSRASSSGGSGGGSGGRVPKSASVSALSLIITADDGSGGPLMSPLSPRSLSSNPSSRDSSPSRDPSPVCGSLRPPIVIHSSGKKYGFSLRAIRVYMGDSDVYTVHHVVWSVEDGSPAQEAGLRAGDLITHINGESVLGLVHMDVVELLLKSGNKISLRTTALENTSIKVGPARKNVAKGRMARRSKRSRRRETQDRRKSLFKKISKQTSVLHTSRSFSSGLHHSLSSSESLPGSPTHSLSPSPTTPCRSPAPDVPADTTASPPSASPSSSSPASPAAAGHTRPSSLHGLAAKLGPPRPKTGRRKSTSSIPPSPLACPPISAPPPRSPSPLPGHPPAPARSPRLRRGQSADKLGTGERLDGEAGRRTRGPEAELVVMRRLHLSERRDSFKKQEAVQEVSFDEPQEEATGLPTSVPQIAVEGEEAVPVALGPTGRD

[3] = target: Macrophage-stimulating protein receptor (Homo sapiens, UniProt Q04912); assay: Inhibition of RON in human HeLa cells lysate pre incubated for 15 mins followed by ADP acyl phosphate probe addition and measured after 10 mins by LC-MS/MS analysis; assay type: subcellular
Sequence of Macrophage-stimulating protein receptor (Q04912 25-304 limits assumed): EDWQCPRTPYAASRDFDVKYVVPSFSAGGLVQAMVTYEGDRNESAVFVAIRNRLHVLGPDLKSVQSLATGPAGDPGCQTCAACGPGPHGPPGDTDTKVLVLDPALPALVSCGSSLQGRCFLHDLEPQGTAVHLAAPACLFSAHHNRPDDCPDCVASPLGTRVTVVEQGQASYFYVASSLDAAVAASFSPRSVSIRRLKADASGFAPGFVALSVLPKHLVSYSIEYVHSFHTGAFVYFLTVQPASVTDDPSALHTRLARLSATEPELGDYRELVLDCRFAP
Sequence of Macrophage-stimulating protein receptor (Q04912 310-1400 limits assumed): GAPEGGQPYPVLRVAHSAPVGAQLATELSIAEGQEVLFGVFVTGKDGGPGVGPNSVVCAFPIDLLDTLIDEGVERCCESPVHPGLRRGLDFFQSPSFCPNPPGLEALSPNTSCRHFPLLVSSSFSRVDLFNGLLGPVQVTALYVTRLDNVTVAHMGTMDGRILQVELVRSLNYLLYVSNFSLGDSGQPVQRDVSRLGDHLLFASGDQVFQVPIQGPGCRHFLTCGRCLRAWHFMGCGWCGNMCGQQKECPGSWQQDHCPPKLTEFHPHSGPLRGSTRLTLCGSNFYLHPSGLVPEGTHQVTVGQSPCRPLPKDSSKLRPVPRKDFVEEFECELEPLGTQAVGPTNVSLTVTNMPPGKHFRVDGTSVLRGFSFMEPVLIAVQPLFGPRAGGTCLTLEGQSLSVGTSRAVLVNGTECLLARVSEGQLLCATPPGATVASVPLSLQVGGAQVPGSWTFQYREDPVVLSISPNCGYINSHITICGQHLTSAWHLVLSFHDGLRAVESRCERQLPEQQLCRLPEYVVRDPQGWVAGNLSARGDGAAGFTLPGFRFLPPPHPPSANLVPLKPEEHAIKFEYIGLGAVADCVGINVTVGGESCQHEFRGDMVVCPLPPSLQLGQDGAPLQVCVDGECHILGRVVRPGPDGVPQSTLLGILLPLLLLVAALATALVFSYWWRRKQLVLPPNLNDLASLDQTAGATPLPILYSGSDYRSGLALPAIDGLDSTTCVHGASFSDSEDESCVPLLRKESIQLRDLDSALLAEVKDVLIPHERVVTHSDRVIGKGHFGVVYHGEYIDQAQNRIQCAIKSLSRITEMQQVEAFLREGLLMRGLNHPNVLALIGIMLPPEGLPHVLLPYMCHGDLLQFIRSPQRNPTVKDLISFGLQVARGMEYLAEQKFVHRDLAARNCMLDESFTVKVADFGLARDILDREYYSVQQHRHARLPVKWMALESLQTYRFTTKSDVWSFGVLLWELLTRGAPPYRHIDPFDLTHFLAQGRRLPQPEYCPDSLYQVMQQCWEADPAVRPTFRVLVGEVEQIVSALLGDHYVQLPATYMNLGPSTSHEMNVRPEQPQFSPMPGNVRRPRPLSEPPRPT

[4] = target: Ribosomal protein S6 kinase alpha-5 (Homo sapiens, UniProt O75582); assay: Inhibition of MSK1 domain 1 in human HeLa cells lysate at 50 uM pre incubated for 15 mins followed by ADP acyl phosphate probe addition and measured after 10 mins by LC-MS/MS analysis relative to control; assay type: subcellular; conditions: time 25.0 min
[5] = target: Interferon-induced, double-stranded RNA-activated protein kinase (Homo sapiens, UniProt P19525); assay: Inhibition of PKR in human HeLa cells lysate at 50 uM pre incubated for 15 mins followed by ADP acyl phosphate probe addition and measured after 10 mins by LC-MS/MS analysis relative to control; assay type: subcellular; conditions: time 25.0 min
[6] = Inhibition of PCTAIRE2/ICK in human HeLa cells lysate at 10 uM pre incubated for 15 mins followed by ADP acyl phosphate probe addition and measured after 10 mins by LC-MS/MS analysis relative to control; conditions: 25 min, condition cancer
[7] = Inhibition of MAP3K2/MAP3K3 in human HeLa cells lysate at 10 uM pre incubated for 15 mins followed by ADP acyl phosphate probe addition and measured after 10 mins by LC-MS/MS analysis relative to control; conditions: 25 min, condition cancer
[8] = target: Dual specificity mitogen-activated protein kinase kinase; MEK1/2 (Homo sapiens, UniProt P36507+Q02750); assay: Inhibition of MAP2K1/MAP2K2in human HeLa cells lysate at 10 uM pre incubated for 15 mins followed by ADP acyl phosphate probe addition and measured after 10 mins by LC-MS/MS analysis relative to control; assay type: subcellular; conditions: time 25.0 min
[9] = target: T1, Phosphatidylinositol 5-phosphate 4-kinase type-2 alpha (Homo sapiens) (UniProt P48426); assay: Inhibition of PIP5K2A LIP1 site in human HeLa cells lysate at 2 uM pre incubated for 15 mins followed by ADP acyl phosphate probe addition and measured after 10 mins by LC-MS/MS analysis relative to control; assay type: subcellular; conditions: time 25.0 min
T1 sequence (whole entry): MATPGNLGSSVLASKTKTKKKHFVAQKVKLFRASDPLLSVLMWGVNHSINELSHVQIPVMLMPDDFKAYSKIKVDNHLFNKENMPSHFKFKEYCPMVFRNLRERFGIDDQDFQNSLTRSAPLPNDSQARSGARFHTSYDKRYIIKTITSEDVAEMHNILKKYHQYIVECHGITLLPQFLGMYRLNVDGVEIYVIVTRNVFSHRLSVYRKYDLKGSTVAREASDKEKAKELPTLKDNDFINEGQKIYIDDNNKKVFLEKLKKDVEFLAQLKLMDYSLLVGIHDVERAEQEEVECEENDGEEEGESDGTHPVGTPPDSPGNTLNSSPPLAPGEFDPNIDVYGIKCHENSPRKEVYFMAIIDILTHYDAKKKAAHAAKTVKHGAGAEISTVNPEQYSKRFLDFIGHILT

[10] = target: T2, Dual specificity mitogen-activated protein kinase kinase 6 (Homo sapiens) (UniProt P52564); assay: Inhibition of MAP2K6 in human HeLa cells lysate at 2 uM pre incubated for 15 mins followed by ADP acyl phosphate probe addition and measured after 10 mins by LC-MS/MS analysis relative to control; assay type: subcellular; conditions: time 25.0 min
T2 sequence (whole entry): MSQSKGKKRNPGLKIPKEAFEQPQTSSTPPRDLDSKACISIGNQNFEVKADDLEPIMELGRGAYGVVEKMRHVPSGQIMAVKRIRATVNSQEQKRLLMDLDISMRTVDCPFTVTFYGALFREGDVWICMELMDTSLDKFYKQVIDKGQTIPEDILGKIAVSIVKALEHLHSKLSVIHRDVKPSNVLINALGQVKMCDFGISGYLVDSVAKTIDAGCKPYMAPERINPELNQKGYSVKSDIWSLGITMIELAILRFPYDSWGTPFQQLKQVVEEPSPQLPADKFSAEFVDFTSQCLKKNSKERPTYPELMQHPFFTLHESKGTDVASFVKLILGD

Wee1-like protein kinase = Wee1-like protein kinase (Homo sapiens, UniProt P30291); assay: Inhibition of Wee1 in human HeLa cells lysate at 50 uM pre incubated for 15 mins followed by ATP acyl phosphate probe addition and measured after 10 mins by LC-MS/MS analysis relative to control; assay type: subcellular; conditions: time 25.0 min
[11] = target: Phosphatidylinositol 3-kinase catalytic subunit type 3 (Homo sapiens, UniProt Q8NEB9); assay: Inhibition of PIK3C3 in human HeLa cells lysate at 10 uM pre incubated for 15 mins followed by ATP acyl phosphate probe addition and measured after 10 mins by LC-MS/MS analysis relative to control; assay type: subcellular; conditions: time 25.0 min
Sequence of Phosphatidylinositol 3-kinase catalytic subunit type 3 (Q8NEB9 whole entry, canonical isoform): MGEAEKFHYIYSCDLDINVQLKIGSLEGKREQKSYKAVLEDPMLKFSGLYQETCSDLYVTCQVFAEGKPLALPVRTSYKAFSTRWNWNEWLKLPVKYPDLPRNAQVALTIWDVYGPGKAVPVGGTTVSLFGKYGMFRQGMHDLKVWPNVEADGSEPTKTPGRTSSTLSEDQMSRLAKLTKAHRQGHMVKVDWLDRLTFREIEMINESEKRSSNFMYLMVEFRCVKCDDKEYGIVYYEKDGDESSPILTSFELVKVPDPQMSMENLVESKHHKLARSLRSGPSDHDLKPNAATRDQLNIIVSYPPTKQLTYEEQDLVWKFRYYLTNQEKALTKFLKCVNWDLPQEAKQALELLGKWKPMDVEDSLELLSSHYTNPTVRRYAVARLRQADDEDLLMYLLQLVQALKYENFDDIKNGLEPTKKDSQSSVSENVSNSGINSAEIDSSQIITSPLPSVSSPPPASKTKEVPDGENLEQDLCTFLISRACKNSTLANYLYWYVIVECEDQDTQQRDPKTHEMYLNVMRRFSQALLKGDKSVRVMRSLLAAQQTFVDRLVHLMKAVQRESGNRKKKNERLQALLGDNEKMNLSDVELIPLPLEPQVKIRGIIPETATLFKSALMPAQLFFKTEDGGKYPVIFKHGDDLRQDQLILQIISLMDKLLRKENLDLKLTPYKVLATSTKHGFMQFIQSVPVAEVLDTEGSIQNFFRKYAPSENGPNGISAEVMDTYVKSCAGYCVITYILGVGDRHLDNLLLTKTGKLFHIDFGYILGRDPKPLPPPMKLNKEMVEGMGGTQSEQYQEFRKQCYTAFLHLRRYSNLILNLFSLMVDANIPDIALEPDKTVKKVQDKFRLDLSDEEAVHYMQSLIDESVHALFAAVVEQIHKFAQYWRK

[12] = target: T3, Phosphorylase b kinase gamma catalytic chain, liver/testis isoform (Homo sapiens) (UniProt P15735); assay: Inhibition of PHKg2 in human HeLa cells lysate at 10 uM pre incubated for 15 mins followed by ATP acyl phosphate probe addition and measured after 10 mins by LC-MS/MS analysis relative to control; assay type: subcellular; conditions: time 25.0 min
T3 sequence (whole entry): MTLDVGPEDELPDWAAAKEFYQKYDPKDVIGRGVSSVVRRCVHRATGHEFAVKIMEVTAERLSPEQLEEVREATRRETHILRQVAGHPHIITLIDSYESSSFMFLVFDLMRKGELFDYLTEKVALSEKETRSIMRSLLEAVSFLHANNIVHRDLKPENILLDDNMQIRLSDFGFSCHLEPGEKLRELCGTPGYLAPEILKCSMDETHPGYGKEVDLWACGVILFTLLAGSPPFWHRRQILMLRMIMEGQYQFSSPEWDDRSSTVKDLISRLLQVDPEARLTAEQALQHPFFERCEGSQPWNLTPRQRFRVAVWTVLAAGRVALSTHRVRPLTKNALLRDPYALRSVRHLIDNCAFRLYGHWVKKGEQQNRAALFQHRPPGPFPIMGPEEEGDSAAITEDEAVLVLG

[13] = Inhibition of HGK/MINK/TNIK in human HeLa cells lysate at 10 uM pre incubated for 15 mins followed by ATP acyl phosphate probe addition and measured after 10 mins by LC-MS/MS analysis relative to control; conditions: 25 min, condition cancer
[14] = target: Serine/threonine-protein kinase 3/4 (Homo sapiens) (UniProt Q13043+Q13188); assay: Inhibition of MST1/2 in human HeLa cells lysate at 2 uM pre incubated for 15 mins followed by ATP acyl phosphate probe addition and measured after 10 mins by LC-MS/MS analysis relative to control; assay type: subcellular; conditions: time 25.0 min
Sequence of Serine/threonine-protein kinase 3/4 (Homo sapiens) (Q13043 whole entry, looked up): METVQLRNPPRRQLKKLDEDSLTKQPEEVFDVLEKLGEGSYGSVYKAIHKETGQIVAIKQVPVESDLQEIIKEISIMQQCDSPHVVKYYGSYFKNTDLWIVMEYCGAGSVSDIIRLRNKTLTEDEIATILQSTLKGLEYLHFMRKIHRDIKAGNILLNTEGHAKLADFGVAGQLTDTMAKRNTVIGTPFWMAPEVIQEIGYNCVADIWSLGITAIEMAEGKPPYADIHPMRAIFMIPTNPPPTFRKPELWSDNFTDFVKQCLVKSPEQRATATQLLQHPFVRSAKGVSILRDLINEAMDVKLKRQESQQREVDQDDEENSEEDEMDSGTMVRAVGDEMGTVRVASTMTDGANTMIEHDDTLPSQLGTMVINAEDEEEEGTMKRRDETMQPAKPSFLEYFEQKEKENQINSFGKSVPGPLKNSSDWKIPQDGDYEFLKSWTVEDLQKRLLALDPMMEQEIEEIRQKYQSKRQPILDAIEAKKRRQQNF
Sequence of Serine/threonine-protein kinase 3/4 (Homo sapiens) (Q13188 whole entry, looked up): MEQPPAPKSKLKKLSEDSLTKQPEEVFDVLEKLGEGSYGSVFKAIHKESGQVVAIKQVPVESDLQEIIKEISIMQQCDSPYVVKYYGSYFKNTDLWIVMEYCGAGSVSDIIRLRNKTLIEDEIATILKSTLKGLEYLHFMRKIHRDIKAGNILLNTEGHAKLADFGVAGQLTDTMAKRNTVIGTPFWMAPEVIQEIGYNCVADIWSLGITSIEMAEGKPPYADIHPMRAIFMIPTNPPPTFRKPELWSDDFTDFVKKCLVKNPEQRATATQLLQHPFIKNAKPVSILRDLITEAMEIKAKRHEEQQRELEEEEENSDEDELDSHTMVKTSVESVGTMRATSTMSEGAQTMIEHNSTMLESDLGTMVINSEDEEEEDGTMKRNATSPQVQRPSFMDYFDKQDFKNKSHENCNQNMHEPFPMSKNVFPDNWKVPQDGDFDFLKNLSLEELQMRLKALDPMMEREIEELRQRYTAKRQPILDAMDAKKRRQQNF

CCOc1cc(N2CCC(O)CC2)ccc1Nc1ncc2c(n1)N(C)c1ccccc1C(=O)N2C
Activity [1]: 29%
IC50 [2]: > 50 µM
IC50 [3]: > 50 µM
inhibition [4]: 6.4%
inhibition [5]: -8.7%
inhibition at 10 µM [6]: -0.9%
inhibition at 10 µM [7]: -18.3%
inhibition [8]: -2.3%
inhibition [9]: 3.5%
inhibition [10]: 6.7%
inhibition (Wee1-like protein kinase): 4.1%
inhibition [11]: -4.3%
inhibition [12]: -4.9%
inhibition at 10 µM [13]: -6.3%
inhibition [14]: -9%
